Source: patent publication US10405547B2, “Substituted cyclic amides as herbicides” (FMC Corporation, priority 2015, dated 2019)

What was measured:
Format in all cases: in vivo
[1] = system: foxtail, giant (Setaria faberii); test: Test A preemergence, giant foxtail; conditions: 0 to 100 scale (0 no effect, 100 complete control)
Method in brief: (§1)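 Ratings use a 0–100 scale, where 0 means no effect and 100 means complete control, and come from visual comparison with untreated plants roughly 10 days after treatment. Compounds were applied in a surfactant-containing, non-phytotoxic solvent, either to soil after seeding or to foliage of small seedlings.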

[2] = system: galium (catchweed bedstraw, Galium aparine); test: Test A postemergence, galium; conditions: visual injury, 0 to 100 scale (0 no effect, 100 complete control), approximately 10 days
Method in brief: as §1

[3] = system: foxtail, giant (Setaria faberii); test: Test A postemergence, giant foxtail; conditions: visual injury, 0 to 100 scale (0 no effect, 100 complete control), approximately 10 days
Method in brief: as §1

[4] = system: barnyardgrass (Echinochloa crus-galli); test: Test B flooded paddy test, barnyardgrass; conditions: applied to paddy water, visual rating after 13 to 15 days, scale 0 (no effect) to 100 (complete control)
Text: (§2) At time of treatment, test pots were flooded to 3 cm above the soil surface, treated by application of test compounds directly to the paddy water, and then maintained at that water depth for the duration of the test. Treated plants and controls were maintained in a greenhouse for 13 to 15 days, after which time all species were compared to controls and visually evaluated. […] A dash (-) response means no test result.

[5] = system: barnyardgrass (Echinochloa crus-galli); test: Test A preemergence, barnyardgrass; conditions: 0 to 100 scale (0 no effect, 100 complete control)
Method in brief: as §1

[6] = system: ragweed (common ragweed, Ambrosia elatior); test: Test A preemergence, ragweed; conditions: 0 to 100 scale (0 no effect, 100 complete control)
Method in brief: as §1

[7] = system: ryegrass, Italian (Lolium multiflorum); test: Test A postemergence, Italian ryegrass; conditions: visual injury, 0 to 100 scale (0 no effect, 100 complete control), approximately 10 days
Method in brief: as §1

[8] = system: wheat (Triticum aestivum); test: Test A postemergence, wheat; conditions: visual injury, 0 to 100 scale (0 no effect, 100 complete control), approximately 10 days
Method in brief: as §1

corn (Zea mays) = test: Test A postemergence, corn; conditions: visual injury, 0 to 100 scale (0 no effect, 100 complete control), approximately 10 days
Method in brief: as §1

[9] = system: ducksalad (Heteranthera limosa); test: Test B flooded paddy test, ducksalad; conditions: applied to paddy water, visual rating after 13 to 15 days, scale 0 (no effect) to 100 (complete control)
Text: as §2

[10] = system: ryegrass, Italian (Lolium multiflorum); test: Test A preemergence, Italian ryegrass; conditions: 0 to 100 scale (0 no effect, 100 complete control)
Method in brief: as §1

kochia (Kochia scoparia) [11] = test: Test A preemergence, kochia; conditions: 0 to 100 scale (0 no effect, 100 complete control)
Method in brief: as §1

[12] = system: blackgrass (Alopecurus myosuroides); test: Test A postemergence, blackgrass; conditions: visual injury, 0 to 100 scale (0 no effect, 100 complete control), approximately 10 days
Method in brief: as §1

rice (Oryza sativa) = test: Test B flooded paddy test, rice; conditions: applied to paddy water, visual rating after 13 to 15 days, scale 0 (no effect) to 100 (complete control)
Text: as §2

[13] = system: pigweed (Amaranthus retroflexus); test: Test A preemergence, pigweed; conditions: 0 to 100 scale (0 no effect, 100 complete control)
Method in brief: as §1

[14] = system: sedge, umbrella (small-flower umbrella sedge, Cyperus difformis); test: Test B flooded paddy test, umbrella sedge; conditions: applied to paddy water, visual rating after 13 to 15 days, scale 0 (no effect) to 100 (complete control)
Text: as §2

kochia (Kochia scoparia) [15] = test: Test A postemergence, kochia; conditions: visual injury, 0 to 100 scale (0 no effect, 100 complete control), approximately 10 days
Method in brief: as §1

[16] = system: ragweed (common ragweed, Ambrosia elatior); test: Test A postemergence, ragweed; conditions: visual injury, 0 to 100 scale (0 no effect, 100 complete control), approximately 10 days
Method in brief: as §1

[17] = system: barnyardgrass (Echinochloa crus-galli); test: Test A postemergence, barnyardgrass; conditions: visual injury, 0 to 100 scale (0 no effect, 100 complete control), approximately 10 days
Method in brief: as §1

[18] = system: pigweed (Amaranthus retroflexus); test: Test A postemergence, pigweed; conditions: visual injury, 0 to 100 scale (0 no effect, 100 complete control), approximately 10 days
Method in brief: as §1

Row | Compound | Plant response rating, Foxtail, Giant ([1]; 125 g ai/ha) | Plant response rating, Foxtail, Giant ([1]; 500 g ai/ha) | Plant response rating, Galium ([2]; 125 g ai/ha) | Plant response rating, Galium ([2]; 500 g ai/ha) | Plant response rating, Foxtail, Giant ([3]; 125 g ai/ha) | Plant response rating, Foxtail, Giant ([3]; 500 g ai/ha) | Plant response rating, Barnyardgrass ([5]; 125 g ai/ha) | Plant response rating, Barnyardgrass ([5]; 500 g ai/ha) | Plant response rating, Ragweed ([6]; 125 g ai/ha) | Plant response rating, Ragweed ([6]; 500 g ai/ha) | Plant response rating, Ryegrass, Italian ([7]; 125 g ai/ha) | Plant response rating, Ryegrass, Italian ([7]; 500 g ai/ha) | Plant response rating, Wheat ([8]; 125 g ai/ha) | Plant response rating, Wheat ([8]; 500 g ai/ha) | Plant response rating, Corn (corn (Zea mays); 125 g ai/ha) | Plant response rating, Corn (corn (Zea mays); 500 g ai/ha) | Plant response rating, Ryegrass, Italian ([10]; 125 g ai/ha) | Plant response rating, Ryegrass, Italian ([10]; 500 g ai/ha) | Plant response rating, Kochia (kochia (Kochia scoparia) [11]; 125 g ai/ha) | Plant response rating, Kochia (kochia (Kochia scoparia) [11]; 500 g ai/ha) | further results
1 | O=C1NCC(c2cccc(Oc3ncc(F)cn3)c2)C1C(=O)Nc1cccc(F)c1F (single isomer, unassigned) [Compound 37] | 90 | 100 | 50 | 70 | 70 | 90 | 90 | 90 | 0 | 80 | 0 | 60 | 20 | 70 | 70 | 90 | 20 | 50 | 0 | 70 | Plant response rating, Barnyardgrass (Flood) ([4]; 250 g ai/ha): 30; Plant response rating, Ducksalad (Flood) ([9]; 250 g ai/ha): 100; Plant response rating, Blackgrass ([12]; 125 g ai/ha): 40; Plant response rating, Blackgrass ([12]; 500 g ai/ha): 70; Plant response rating, Rice (Flood) (rice (Oryza sativa); 250 g ai/ha): 20; Plant response rating, Pigweed ([13]; 125 g ai/ha): 60; Plant response rating, Pigweed ([13]; 500 g ai/ha): 80; Plant response rating, Sedge, Umbrella (Flood) ([14]; 250 g ai/ha): 0; Plant response rating, Kochia (kochia (Kochia scoparia) [15]; 125 g ai/ha): 0; Plant response rating, Kochia (kochia (Kochia scoparia) [15]; 500 g ai/ha): 50; Plant response rating, Ragweed ([16]; 125 g ai/ha): 20; Plant response rating, Ragweed ([16]; 500 g ai/ha): 70; Plant response rating, Barnyardgrass ([17]; 125 g ai/ha): 90; Plant response rating, Barnyardgrass ([17]; 500 g ai/ha): 100; Plant response rating, Pigweed ([18]; 125 g ai/ha): 40; Plant response rating, Pigweed ([18]; 500 g ai/ha): 70
2 | O=C1NCC(c2cccc(Oc3ccccn3)c2)C1C(=O)Nc1ccccc1F (stereo not drawn) [Compound 34, N-(2-Fluorophenyl)-2-oxo-4-[3-(2-pyridinyloxy)phenyl]-3-pyrrolidinecarboxamide] | 70 | 90 | 20 | 50 | 30 | 80 | 20 | 90 | 0 | 0 | 0 | 30 | 0 | 0 | 0 | 0 | 0 | 0 | 0 | 0 | Plant response rating, Barnyardgrass (Flood) ([4]; 500 g ai/ha): 20; Plant response rating, Ducksalad (Flood) ([9]; 500 g ai/ha): 85; Plant response rating, Blackgrass ([12]; 125 g ai/ha): 0; Plant response rating, Blackgrass ([12]; 500 g ai/ha): 20; Plant response rating, Rice (Flood) (rice (Oryza sativa); 500 g ai/ha): 0; Plant response rating, Pigweed ([13]; 125 g ai/ha): 0; Plant response rating, Pigweed ([13]; 500 g ai/ha): 0; Plant response rating, Sedge, Umbrella (Flood) ([14]; 500 g ai/ha): 0; Plant response rating, Kochia (kochia (Kochia scoparia) [15]; 125 g ai/ha): 0; Plant response rating, Kochia (kochia (Kochia scoparia) [15]; 500 g ai/ha): 0; Plant response rating, Ragweed ([16]; 125 g ai/ha): 0; Plant response rating, Ragweed ([16]; 500 g ai/ha): 0; Plant response rating, Barnyardgrass ([17]; 125 g ai/ha): 30; Plant response rating, Barnyardgrass ([17]; 500 g ai/ha): 60; Plant response rating, Pigweed ([18]; 125 g ai/ha): 0; Plant response rating, Pigweed ([18]; 500 g ai/ha): 0
3 | O=C1NCC(c2cccc(Cn3ccc(C(F)(F)F)n3)c2)C1C(=O)Nc1cccc(F)c1F (stereo not drawn) [Compound 25, N-(2,3-difluorophenyl)-2-oxo-4-[3-[[3-(trifluoromethyl)-1H-pyrazol-1-yl]methyl]phenyl]-3-pyrrolidinecarboxamide] | 50 | 80 | 0 | 0 | 20 | 60 | 20 | 40 | 0 | 0 | 0 | 0 | 0 | 0 | 0 | 0 | 0 | 0 | 0 | 20 | Plant response rating, Barnyardgrass (Flood) ([4]; 500 g ai/ha): 0; Plant response rating, Ducksalad (Flood) ([9]; 500 g ai/ha): 60; Plant response rating, Blackgrass ([12]; 125 g ai/ha): 0; Plant response rating, Blackgrass ([12]; 500 g ai/ha): 0; Plant response rating, Rice (Flood) (rice (Oryza sativa); 500 g ai/ha): 15; Plant response rating, Pigweed ([13]; 125 g ai/ha): 0; Plant response rating, Pigweed ([13]; 500 g ai/ha): 0; Plant response rating, Sedge, Umbrella (Flood) ([14]; 500 g ai/ha): 0; Plant response rating, Kochia (kochia (Kochia scoparia) [15]; 125 g ai/ha): 0; Plant response rating, Kochia (kochia (Kochia scoparia) [15]; 500 g ai/ha): 0; Plant response rating, Ragweed ([16]; 125 g ai/ha): 0; Plant response rating, Ragweed ([16]; 500 g ai/ha): 0; Plant response rating, Barnyardgrass ([17]; 125 g ai/ha): 20; Plant response rating, Barnyardgrass ([17]; 500 g ai/ha): 60; Plant response rating, Pigweed ([18]; 125 g ai/ha): 0; Plant response rating, Pigweed ([18]; 500 g ai/ha): 0
